Assay results as given in US10905704B2, “Agents and methods using thereof for the prevention and treatment of stem cell muscle disorders” (ECOLE POLYTECHNIQUE FEDERALE DE LAUSANNE (EPFL), priority 2015, dated 2021).

Tested on: C2C12 cells
Experiment: Western blot of UPRmt, prohibitins and cell cycle proteins in TAP-treated C2C12 cells
Type: cell-based, mouse
Details: 50 μg/ml TAP, FIG. 7
Experimental: Western blotting. C2C12 cells were lysed in a buffer composed of 50 mM Tris, 150 mM KCl, EDTA 1 mM, NP40 1%, nicotinamide 5 mM, sodium butyrate 1 mM and protease inhibitors cocktail (Roche) at pH 7,4. Proteins were separated by SDS-PAGE and transferred onto nitrocellulose membranes. Blocking and antibody incubations were performed in 3% BSA. The following primary antibodies were used: anti-cleavage caspase 3 (Cell Signalling); Anti-γH2AX (Millipore); anti-β-actin (Sigma). All secondary antibodies were from Jackson Immunoresearch. Antibody detection reactions were developed by enhanced chemiluminescence (Advansta, Calif., USA) using x-ray films or imaged using the c300 imaging system (Azure Biosystems). The following primary antibodies were used: anti-HSP60 (Enzo Life Science); anti-PHB (Biolegend); anti-PHB2 (Santa Cruz); anti-CKD4 (Novus biologicals); anti-CCND1 (Santa Cruz); anti-CCND3 (Santa Cruz); anti-HSP90 (BD Biosciences); HSP70 (Abcam); anti-MT-CO1 (Bio legend); anti-ATP5A (Bio legend); anti-Grp78 (Abcam); and anti-CLPP (Sigma).

Which results are given for `CS(=O)(=O)c1ccc([C@@H](O)[C@@H](CO)NC(=O)C(Cl)Cl)cc1` [thiamphenicol]?
UPRmt induction: UPR^mt induction; cell cycle gene expression: induced; prohibitins expression: induced
